Measurements published in patent publication US12384786B2 (MINGHUI PHARMACEUTICAL (SHANGHAI) LIMITED, priority 2019, dated 2025).
Entries after “also recorded” stand apart in the source; their conditions may differ. Like-named read-outs stand apart in the source and are kept apart here.

Key:
[1] = target: Full-length human BTK (Homo sapiens (Human), UniProt Q06187); assay: BTK inhibitory activity, Reaction Biology Corporation kinase assay; settings: for inhibition at 0.005 µM: read-out: BTK inhibitory rate(%)
Sequence of Full-length human BTK (Homo sapiens (Human), UniProt Q06187) (Q06187 whole entry): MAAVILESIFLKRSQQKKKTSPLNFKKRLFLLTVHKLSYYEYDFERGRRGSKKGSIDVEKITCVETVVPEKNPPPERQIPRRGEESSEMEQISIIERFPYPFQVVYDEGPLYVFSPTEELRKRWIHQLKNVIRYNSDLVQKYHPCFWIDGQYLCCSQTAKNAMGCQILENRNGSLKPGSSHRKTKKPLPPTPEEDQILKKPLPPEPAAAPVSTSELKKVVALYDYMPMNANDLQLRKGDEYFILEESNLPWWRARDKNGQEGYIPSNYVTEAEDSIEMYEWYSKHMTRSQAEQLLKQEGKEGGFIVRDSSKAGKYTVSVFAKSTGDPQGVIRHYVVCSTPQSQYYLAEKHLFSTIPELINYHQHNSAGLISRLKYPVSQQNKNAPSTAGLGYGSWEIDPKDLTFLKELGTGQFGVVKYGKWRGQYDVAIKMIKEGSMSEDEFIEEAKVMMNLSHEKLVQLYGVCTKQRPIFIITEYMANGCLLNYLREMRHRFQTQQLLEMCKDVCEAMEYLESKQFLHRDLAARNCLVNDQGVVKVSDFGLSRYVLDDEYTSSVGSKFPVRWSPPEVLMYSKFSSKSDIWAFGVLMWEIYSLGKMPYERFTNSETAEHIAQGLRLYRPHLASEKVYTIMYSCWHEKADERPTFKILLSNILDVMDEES

[2] = target: Full-length human BTK (C481S) (Homo sapiens (Human), UniProt Q06187, C481S); assay: BTK (C481S) inhibitory activity, Reaction Biology Corporation kinase assay; settings: for inhibition at 0.005 µM: read-out: BTK(C481S) inhibitory rate(%)
Sequence of Full-length human BTK (C481S) (Q06187 whole entry C481S): as the sequence (Q06187 whole entry) above, with C481S counted along it

[3] = test system: subcutaneous xenograft TMD8 tumor; assay: Subcutaneous transplantation tumor model of TMD8 cells in NOD/SCID mice; format: in vivo; settings: for inhibitory effect on growth of subcutaneous transplanted TMD8 tumor / anti-tumor effect: orally 30 mg/kg once a day or 10→5 mg/kg twice a day; for tumor growth inhibition rate (TGI): after 22 days of administration
Method: In the subcutaneous transplantation tumor model of human diffuse large B lymphoma TMD8 cells in NOD/SCID mice, the inhibitory effect of example 1 on tumor growth was tested. Tumor growth and animal body weight were presented in FIG. 1 and FIG. 2 as followed. […] Therefore, the dose was adjusted to 5 mg/kg and continued to administrate for 14 days.

[4] = test system: TMD8 cells (Human diffuse large B lymphoma cells); assay: CellTiter-Glo TMD8 inhibitory activity; format: cell-based; settings: cultured in vitro
Source text: CellTiter-Glo kit was used to test the TMD8 inhibitory activity of compounds of examples on Human diffuse large B lymphoma cells cultured in vitro. IC50 values were shown below.

[5] = target: Full-length human BTK; assay: BTK inhibitory activity, Reaction Biology Corporation kinase assay; settings: read-out: IC50 of standard; standard in BTK/BTK (C481S) assay, ATP 10 μM
[6] = IC50(nM) BTK, (d) ATP concentration 50 μM
[7] = IC50(nM) BTK(C481S), (d) ATP concentration 50 μM
[8] = read-out: IC50(nM) BTK, (b) ATP concentration 100 μM
[9] = read-out: IC50(nM) BTK(C481S), (b) ATP concentration 100 μM
[10] = read-out: IC50(nM) BTK, (d) ATP concentration 50 μM
[11] = read-out: IC50(nM) BTK(C481S), (d) ATP concentration 50 μM

Q: `COc1cccc(Oc2ccc(-c3nn(C4CCC(CO)OC4)c4ncnc(N)c34)cc2)c1F` (single isomer, unassigned) [Example 30 Peak1-1, (5-(4-amino-3-(4-(2-fluoro-3-methoxyphenoxy)phenyl)-1H-pyrazolo[3,4-d]pyrimidin-1-yl)tetrahydro-2 h-pyran-2-yl)methanol] was tested. Which IC50 [1, 6] did it give?
A: 3.8 nM

Q: What about the IC50 [2, 7] of the same compound?
A: 3.7 nM

Q: `COc1cccc(Oc2ccc(-c3nn(C4CCC(CO)OC4)c4ncnc(N)c34)cc2)c1F` (single isomer, unassigned) [Example 30 Peak1-2, (5-(4-amino-3-(4-(2-fluoro-3-methoxyphenoxy)phenyl)-1H-pyrazolo[3,4-d]pyrimidin-1-yl)tetrahydro-2 h-pyran-2-yl)methanol] was tested. Which IC50 [1, 6] did it give?
A: 8.5 nM

Q: And the IC50 [2, 7]?
A: 6.7 nM

Q: `COc1cccc(Oc2ccc(-c3nn(C4CCC(CO)OC4)c4ncnc(N)c34)cc2)c1F` (single isomer, unassigned) [Example 30 Peak2-1, (5-(4-amino-3-(4-(2-fluoro-3-methoxyphenoxy)phenyl)-1H-pyrazolo[3,4-d]pyrimidin-1-yl)tetrahydro-2 h-pyran-2-yl)methanol] was tested. Which IC50 [1, 6] did it give?
A: 1.8 nM

Q: And the IC50 [2, 7]?
A: 1.1 nM

Q: How did the IC50 [1, 6] turn out when `COc1cccc(Oc2ccc(-c3nn(C4CCC(CO)OC4)c4ncnc(N)c34)cc2)c1F` (single isomer, unassigned) [Example 30 Peak2-2, (5-(4-amino-3-(4-(2-fluoro-3-methoxyphenoxy)phenyl)-1H-pyrazolo[3,4-d]pyrimidin-1-yl)tetrahydro-2 h-pyran-2-yl)methanol] was run?
A: 5 nM

Q: What about the IC50 [2, 7] of the same compound?
A: 2.8 nM

Q: For `Nc1ncnc2c1c(-c1ccc(Oc3ccccc3)cc1)nn2[C@@H]1CCC[C@@H](O)C1` [Example 1, (1R,3R)-3-(4-amino-3-(4-phenoxyphenyl)-1h-pyrazole[3,4-d]pyrimidin-1-yl)cyclohex-1-ol], which inhibition at 0.005 µM [1] is on record?
A: 60%

Q: What about the IC50 [1, 8] of the same compound?
A: 8.1 nM

Q: And the animal body weight ([3]; 10 mg/kg orally twice a day for 8 successive days)?
A: decreased slightly

Q: And the “effect on animal body weight” value ([3]; 30 mg/kg orally once a day)?
A: no significant effect

Q: What about the “influence on the body weight of animals” value ([3]; during administration, treatment groups overall) of the same compound?
A: without showing obvious influence

Q: What about the “inhibitory effect on growth of subcutaneous transplanted TMD8 tumor / anti-tumor effect” value [3] of the same compound?
A: obvious inhibitory effect

Q: What about the “inhibitory effect on growth of subcutaneous transplanted TMD8 tumor / anti-tumor effect” value ([3]; listed as example 1) of the same compound?
A: significant anti-tumor effect; also recorded: significantly inhibited the growth of tumor

Q: And the “tumor growth inhibition rate (TGI)” value ([3]; orally once a day at 30 mg/kg)?
A: 49.6%

Q: What about the “tumor growth inhibition rate (TGI)” value ([3]; orally twice a day at 10→5 mg/kg) of the same compound?
A: 52.7%

Q: What about the IC50 [2, 9] of the same compound?
A: 3.4 nM

Q: And the IC50 [4]?
A: 20 nM

Q: For `Nc1ncnc2c1c(-c1ccc(Oc3ccccc3)cc1)nn2C1CCC(O)C1` (stereo not drawn) [Example 5], which inhibition at 0.005 µM [1] is on record?
A: 62%

Q: What about the inhibition at 0.005 µM [2] of the same compound?
A: 53%

Q: What about the IC50 [4] of the same compound?
A: 29 nM

Q: What does the source list for `CC1(O)CCC(n2nc(-c3ccc(Oc4ccccc4)cc3)c3c(N)ncnc32)C1` (stereo not drawn) [Example 6, 3-(4-amino-3-(4-phenoxyphenyl)-1H-pyrazolo[3,4-d]pyrimidin-1-yl)-1-methylcyclopentanol]?
A: inhibition at 0.005 µM [1]: 70%; inhibition at 0.005 µM [2]: 63%; IC50 [4]: 17 nM

Q: For `Nc1ncnc2c1c(-c1ccc(Oc3ccccc3)cc1)nn2[C@H]1CC[C@@H](O)CC1` [Example 8A, (1s, 4S)-4-(4-amino-3-(4-phenoxyphenyl)-1H-pyrazolo[3,4-d]pyrimidin-1-yl) cyclohexane-1-ol], which inhibition at 0.005 µM [1] is on record?
A: 82%

Q: What about the inhibition at 0.005 µM [2] of the same compound?
A: 66%

Q: And the IC50 [4]?
A: 90 nM

Q: Which results are given for `C[C@]1(O)CC[C@@H](n2nc(-c3ccc(Oc4ccccc4)cc3)c3c(N)ncnc32)CC1` [Example 9A, (1s,4s)-4-(4-amino-3-(4-phenoxyphenyl)-1H-pyrazolo[3,4-d]pyrimidin-1-yl]-1-methylcyclohexane-1-ol]?
A: inhibition at 0.005 µM [1]: 57%; inhibition at 0.005 µM [2]: 77%; IC50 [4]: 72 nM

Q: Which results are given for `C[C@]1(O)CC[C@H](n2nc(-c3ccc(Oc4ccccc4)cc3)c3c(N)ncnc32)CC1` [Example 9B, (1r,4r)-4 (4-amino-3-(4-phenoxyphenyl)-1H-pyrazolo[3,4-d]pyrimidin-1-yl]-1-methylcyclohexane-1-ol]?
A: inhibition at 0.005 µM [1]: 46%; inhibition at 0.005 µM [2]: 63%; IC50 [4]: 37 nM

Q: What does the source list for `Nc1ncnc2c1c(-c1ccc(Oc3ccccc3)cc1)nn2C1CCC(O)(C2CC2)CC1` (stereo not drawn) [Example 10, 4-(4-amino-3-(4-phenoxyphenyl)-1H-pyrazolo[3,4-d]pyrimidin-1-yl]-1-cyclopropylcyclohexane-1-ol]?
A: inhibition at 0.005 µM [1]: 63%; inhibition at 0.005 µM [2]: 72%; IC50 [4]: 145 nM

Q: What does the source list for `Nc1ncnc2c1c(-c1ccc(Oc3cccc(F)c3)cc1)nn2[C@@H]1CCC[C@@H](O)C1` [Example 15]?
A: inhibition at 0.005 µM [1]: 55%; IC50 ([1]; read-out: IC50(nM) BTK, (c) ATP concentration 10 μM): 3.8 nM; IC50 ([2]; read-out: IC50(nM) BTK(C481S), (c) ATP concentration 10 μM): 1.7 nM

Q: `COc1cccc(Oc2ccc(-c3nn([C@H]4CC[C@@H](O)CC4)c4ncnc(N)c34)cc2)c1F` [Example 20, (1s,4s)-4-(4-amino-3-(4-(2-fluoro-3-methoxyphenoxy)phenyl)-1H-pyrazolo[3,4-d]pyrimidin-1-yl)cyclohex-1-ol] was tested. Which IC50 [1, 8] did it give?
A: 5 nM

Q: What about the IC50 [2, 9] of the same compound?
A: 0.9 nM

Q: What about the IC50 [4] of the same compound?
A: 8.6 nM

Q: Which IC50 [1, 10] does the source give for `COc1cccc(Oc2ccc(-c3nn(C4CCC(O)C(O)C4)c4ncnc(N)c34)cc2)c1F` (stereo not drawn) [Example 28, 4-(4-amino-3-(4-(2-fluoro-3-methoxyphenoxy)phenyl)-1H-pyrazolo[3,4-d]pyrimidin-1-yl)cyclohexane-1,2-diol] here?
A: 1.7 nM

Q: And the IC50 [2, 11]?
A: 0.6 nM

Q: For `COc1cccc(Oc2ccc(-c3nn([C@H]4CCC[C@H](O)C4)c4ncnc(N)c34)cc2)c1F` [Example 32, (1S,3S)-3-(4-amino-3-(4-(2-fluoro-3-methoxyphenoxy)phenyl)-1H-pyrazolin[3,4-d]pyrimidin-1-yl)cyclohexanol], which IC50 [1, 10] is on record?
A: 2.6 nM

Q: What about the IC50 [2, 11] of the same compound?
A: 0.9 nM

Q: Which IC50 [5] does the source give for `CN[C@@H]1C[C@H]2O[C@@](C)([C@@H]1OC)n1c3ccccc3c3c4c(c5c6ccccc6n2c5c31)C(=O)NC4` [Starsporin, reference compound] here?
A: 3.94 nM
